# Laboratory results taken from ChEMBL document CHEMBL1157707, “Lead optimization of N-3-substituted 7-morpholinotriazolopyrimidines as dual phosphoinositide 3-kinase/mammalian target of rapamycin inhibitors: discovery of PKI-402” (J Med Chem, 2010).
# Calls of active or inactive are those of the source. The calls are words filed in the database; no cut-off is given here.
# Tests used:
# [1] = target: Serine/threonine-protein kinase mTOR (Homo sapiens, UniProt P42345); test: Inhibition of mTOR by DELFIA
# [2] = Solubility at pH 7.4; format: physicochemical; details: buffer
# MDA-MB-361 = test: cells; details: Homo sapiens, MDA-MB-361, 72 h
# PC-3 = test: cells; details: Homo sapiens, PC-3, 72 h
# in vitro = details: rat
# [3] = target: Phosphatidylinositol 4,5-bisphosphate 3-kinase catalytic subunit gamma isoform (Homo sapiens, UniProt P48736); test: Inhibition of human PI3Kgamma by fluorescence polarization format assay
# Phosphatidylinositol 4,5-bisphosphate 3-kinase catalytic subunit gamma isoform, sequence (P48736 whole entry, canonical isoform): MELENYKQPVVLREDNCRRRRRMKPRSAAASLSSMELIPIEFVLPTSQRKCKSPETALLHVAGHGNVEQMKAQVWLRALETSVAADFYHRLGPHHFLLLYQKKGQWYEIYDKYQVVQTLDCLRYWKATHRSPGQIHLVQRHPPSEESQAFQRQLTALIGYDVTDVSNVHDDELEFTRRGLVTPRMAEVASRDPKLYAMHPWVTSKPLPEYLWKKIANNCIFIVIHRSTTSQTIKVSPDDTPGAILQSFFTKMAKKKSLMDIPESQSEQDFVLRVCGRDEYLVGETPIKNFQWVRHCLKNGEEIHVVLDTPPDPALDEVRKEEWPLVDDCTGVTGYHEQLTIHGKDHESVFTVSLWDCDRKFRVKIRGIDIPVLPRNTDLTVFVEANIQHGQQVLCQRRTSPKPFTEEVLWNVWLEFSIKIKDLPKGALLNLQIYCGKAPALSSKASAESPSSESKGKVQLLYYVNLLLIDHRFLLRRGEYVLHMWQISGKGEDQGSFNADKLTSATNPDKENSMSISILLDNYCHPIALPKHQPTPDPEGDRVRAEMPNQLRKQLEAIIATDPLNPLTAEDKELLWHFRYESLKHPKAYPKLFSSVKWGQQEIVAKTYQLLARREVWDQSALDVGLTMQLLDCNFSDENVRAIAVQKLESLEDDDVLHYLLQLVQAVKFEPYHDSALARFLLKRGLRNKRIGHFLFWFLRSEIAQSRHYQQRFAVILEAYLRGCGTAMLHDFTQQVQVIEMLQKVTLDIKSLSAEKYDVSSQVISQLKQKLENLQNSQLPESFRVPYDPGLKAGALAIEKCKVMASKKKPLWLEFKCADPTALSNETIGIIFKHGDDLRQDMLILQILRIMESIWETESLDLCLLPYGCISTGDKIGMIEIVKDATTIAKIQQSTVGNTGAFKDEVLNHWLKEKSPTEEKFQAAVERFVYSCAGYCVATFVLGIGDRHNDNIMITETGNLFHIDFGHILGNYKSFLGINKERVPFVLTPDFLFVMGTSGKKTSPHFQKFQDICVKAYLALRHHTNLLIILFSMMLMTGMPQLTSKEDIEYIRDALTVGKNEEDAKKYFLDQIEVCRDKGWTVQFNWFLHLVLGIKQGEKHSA
# [4] = target: Phosphatidylinositol 4,5-bisphosphate 3-kinase catalytic subunit alpha isoform (Homo sapiens, UniProt P42336)
# Phosphatidylinositol 4,5-bisphosphate 3-kinase catalytic subunit alpha isoform, sequence (P42336 whole entry, canonical isoform): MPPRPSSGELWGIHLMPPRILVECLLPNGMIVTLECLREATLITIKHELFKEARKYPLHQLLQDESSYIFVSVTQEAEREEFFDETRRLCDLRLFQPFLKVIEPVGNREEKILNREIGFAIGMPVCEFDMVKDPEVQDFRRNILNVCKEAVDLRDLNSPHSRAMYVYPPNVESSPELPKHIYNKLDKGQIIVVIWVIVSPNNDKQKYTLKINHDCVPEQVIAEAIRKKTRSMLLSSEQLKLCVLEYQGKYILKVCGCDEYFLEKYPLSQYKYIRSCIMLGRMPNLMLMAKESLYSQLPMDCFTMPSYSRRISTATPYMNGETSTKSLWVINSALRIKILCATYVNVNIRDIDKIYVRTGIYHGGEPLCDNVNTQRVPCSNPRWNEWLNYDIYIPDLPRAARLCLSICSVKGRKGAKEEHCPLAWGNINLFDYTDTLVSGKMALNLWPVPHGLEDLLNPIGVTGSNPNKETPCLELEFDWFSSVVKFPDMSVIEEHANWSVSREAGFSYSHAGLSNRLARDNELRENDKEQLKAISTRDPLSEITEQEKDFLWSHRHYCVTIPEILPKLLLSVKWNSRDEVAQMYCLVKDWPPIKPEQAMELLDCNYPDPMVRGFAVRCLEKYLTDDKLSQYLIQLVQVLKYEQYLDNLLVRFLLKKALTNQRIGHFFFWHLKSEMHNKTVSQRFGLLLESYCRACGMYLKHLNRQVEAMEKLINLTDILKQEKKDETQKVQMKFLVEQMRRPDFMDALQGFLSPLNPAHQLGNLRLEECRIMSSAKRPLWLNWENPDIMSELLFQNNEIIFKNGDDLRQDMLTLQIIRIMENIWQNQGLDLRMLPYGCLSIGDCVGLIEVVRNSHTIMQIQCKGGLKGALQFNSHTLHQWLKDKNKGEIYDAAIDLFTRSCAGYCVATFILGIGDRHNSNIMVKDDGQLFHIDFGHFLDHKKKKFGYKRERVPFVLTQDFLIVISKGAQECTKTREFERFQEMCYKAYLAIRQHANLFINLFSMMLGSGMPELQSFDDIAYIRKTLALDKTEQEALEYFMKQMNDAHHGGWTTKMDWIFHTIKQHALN
# [5] = Metabolic stability in human liver microsomes assessed as half life; format: ADME, Microsome
# cells = details: Homo sapiens, MDA-MB-361, 4 h
# [6] = Metabolic stability in mouse liver microsomes assessed as half life; format: ADME, Microsome
# [7] = Solubility at pH 3; format: physicochemical; details: buffer
# Mus musculus [8] = test: Antitumor activity against human MDA-MB-361 cells implanted in mouse assessed as suppression of Akt T308 phosphorylation at 50 mg/kg, iv; format: functional, organism-based; set-up: dose 50 mg/kg
# Mus musculus [9] = test: Antitumor activity against human MDA-MB-361 cells implanted in mouse assessed as suppression of Akt S473 phosphorylation at 50 mg/kg, iv; format: functional, organism-based; set-up: dose 50 mg/kg
# Mus musculus [10] = test: Antitumor activity against human MDA-MB-361 cells implanted in mouse assessed as suppression of P70S6K phosphorylation at 50 mg/kg, iv; format: functional, organism-based; set-up: dose 50 mg/kg
# Mus musculus [11] = test: Antitumor activity against human MDA-MB-361 cells implanted in mouse assessed as suppression of S6 phosphorylation at 50 mg/kg, iv; format: functional, organism-based; set-up: dose 50 mg/kg
# Mus musculus [12] = test: Plasma concentration in human MDA-MB-361 cells implanted mouse at 50 mg/kg, iv; format: ADME, organism-based; set-up: dose 50 mg/kg, route intravenous; details: in vivo
# [13] = Drug level in human MDA-MB-361 cells implanted mouse tumor at 50 mg/kg, iv; format: ADME, organism-based, Neoplasm; set-up: dose 50 mg/kg, route intravenous; details: in vivo
Compound,IC50 [1] [nM],solubility [2] [µg/mL],IC50 (MDA-MB-361) [nM],IC50 (PC-3) [nM],half-life (in vitro; liver microsomes) [min],IC50 [4] [nM],other results
CC(C)n1nnc2c(N3CCOCC3)nc(-c3ccc(NC(=O)Nc4ccc(N5CCOCC5)cc4)cc3)nc21,0.35,1,47,110,25,,
O=C(Nc1ccc(-c2nc(N3CCOCC3)c3nnn(C4CC4)c3n2)cc1)Nc1cccnc1,0.57,1,67,90,24,10.5,IC50 [3]: 48.5 nM
CCn1nnc2c(N3CCOCC3)nc(-c3ccc(NC(=O)Nc4ccc(C(=O)N(C)C)cc4)cc3)nc21,0.75,1,16,17,14,1.4,half-life [5]: > 30 min; IC50 (cells): 8 nM
CCCCNC(=O)c1ccc(NC(=O)Nc2ccc(-c3nc(N4CCOCC4)c4nnn(CC)c4n3)cc2)cc1,2.7,,68,96,21,,half-life [5]: > 30 min; half-life [6]: 27 min; IC50 (cells): 47 nM
CC(C)n1nnc2c(N3CCOCC3)nc(-c3ccc(NC(=O)Nc4ccncc4)cc3)nc21,0.51,,54,67,> 30,,
CCn1nnc2c(N3CCOCC3)nc(-c3ccc(NC(=O)Nc4ccncc4)cc3)nc21,0.63,18,35,49,27,5,
CCn1nnc2c(N3CCOCC3)nc(-c3ccc(NC(=O)Nc4ccc(C(=O)NCCCN(C)C)cc4)cc3)nc21,2.2,100,41,116,26,2.4,solubility [7]: 100 µg/mL; half-life [5]: 30 min; half-life [6]: 26 min; IC50 (cells): 44 nM
OCc1cccc(-c2nc(N3CCOCC3)c3ncn(C4CCN(Cc5ccccc5)CC4)c3n2)c1,634,,,,,,
CCNC(=O)c1ccc(NC(=O)Nc2ccc(-c3nc(N4CCOCC4)c4nnn(CC)c4n3)cc2)cc1,0.56,1,29,33,,3,IC50 [3]: 17.2 nM; half-life [5]: > 30 min; half-life [6]: 29 min; IC50 (cells): 27 nM; half-life (in vitro; microsomes): 16 min
CCn1nnc2c(N3CCOCC3)nc(-c3ccc(NC(=O)Nc4cccs4)cc3)nc21,3,1,81,133,10,,
CC(C)n1nnc2c(N3CCOCC3)nc(-c3ccc(NC(=O)Nc4ccc(C(N)=O)cc4)cc3)nc21,0.31,,38,57,9,3.6,
Cn1nnc2c(N3CCOCC3)nc(-c3ccc(NC(=O)Nc4cccs4)cc3)nc21,3.7,2,184,366,9,,
CCn1nnc2c(N3CCOCC3)nc(-c3ccc(NC(=O)Nc4ccc(C(N)=O)cc4)cc3)nc21,0.39,6,28,65,,2.4,IC50 [3]: 12.2 nM; half-life (in vitro; microsomes): 21 min
Cn1nnc2c(N3CCOCC3)nc(-c3ccc(NC(=O)Nc4cccnc4)cc3)nc21,2.95,1,198,281,,,half-life (in vitro; microsomes): 12 min
CCn1nnc2c(N3CCOCC3)nc(-c3ccc(NC(=O)Nc4ccc(C(=O)OC)cc4)cc3)nc21,2.55,,199,285,15,,
O=C(Nc1ccncc1)Nc1ccc(-c2nc(N3CCOCC3)c3nnn(C4CC4)c3n2)cc1,0.84,,31,70,21,,
CCn1nnc2c(N3CCOCC3)nc(-c3ccc(NC(=O)Nc4ccc(C(=O)NCCN5CCN(C)CC5)cc4)cc3)nc21,1.1,1,24,67,17,3.2,solubility [7]: 100 µg/mL; half-life [6]: 28 min; IC50 (cells): 74 nM
CCn1nnc2c(N3CCOCC3)nc(-c3ccc(NC(=O)Nc4ccc(C(=O)NCCc5ccccn5)cc4)cc3)nc21,1.21,1,36,88,23,6.8,IC50 [3]: 22 nM; solubility [7]: 4 µg/mL; half-life [5]: 16 min; half-life [6]: 19 min; IC50 (cells): 65 nM
CC(C)n1nnc2c(N3CCOCC3)nc(-c3ccc(NC(=O)Nc4cccnc4)cc3)nc21,0.57,1,39,91,24,,
CC(C)n1nnc2c(N3CCOCC3)nc(-c3ccc(NC(=O)Nc4ccc(N(C)C)cc4)cc3)nc21,1.6,,84,171,7,,
CCn1nnc2c(N3CCOCC3)nc(-c3ccc(NC(=O)Nc4ccnc(C)c4)cc3)nc21,21,3,196,252,11,,
OCc1cccc(-c2nc(N3CCOCC3)c3nnn(C4CCN(Cc5ccccc5)CC4)c3n2)c1,250,,,393,,,
CCn1nnc2c(N3CCOCC3)nc(-c3ccc(NC(=O)Nc4ccc(C(=O)NCCN(C)C)cc4)cc3)nc21,0.5,> 100,13,52,,,IC50 [3]: 12 nM; solubility [7]: > 100 µg/mL; half-life [5]: > 30 min; half-life [6]: 28 min; Activity (Mus musculus [8]): Active; Activity (Mus musculus [9]): Active; Activity (Mus musculus [10]): Active; Activity (Mus musculus [11]): Active; Cp (Mus musculus [12]): 1229 ng/mL; Drug uptake [13]: 2130 ng/mL; IC50 (cells): 16 nM; half-life (in vitro; microsomes): 29 min
O=C(Nc1ccc(-c2nc(N3CCOCC3)c3nnn(C4CC4)c3n2)cc1)Nc1cccs1,3.05,,73,149,15,,
CCn1nnc2c(N3CCOCC3)nc(-c3ccc(NC(=O)Nc4cccnc4)cc3)nc21,0.89,,,,,,
